Reference: patent US12180187B2, “1-phenyl-5-azinylpyrazolyl-3-oxyalkyl acids and their use for controlling unwanted plant growth” (BAYER AKTIENGESELLSCHAFT, priority 2019, dated 2024)

Assays:
[1] = tested on: ALOMY; assay: Pre-emergence action against ALOMY, 1280 g/ha; assay type: in vivo, Alopecurus myosuroides; details: visual scoring after about 3 weeks vs untreated controls, 100% = plants have died, 0% = like control plants
Outline: (§1)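 Visual percent-effect ratings (0% = like control, 100% = plants dead) were taken about 3 weeks after pre-emergence soil-surface application of WP/EC aqueous formulations with 0.5% additive, 600 L water/ha. Seeds were sown in sandy loam and grown in the greenhouse.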

[2] = tested on: DIGSA; assay: Pre-emergence action against DIGSA, 1280 g/ha; assay type: in vivo, Digitaria sanguinalis; details: visual scoring after about 3 weeks vs untreated controls, 100% = plants have died, 0% = like control plants
Outline: as §1

[3] = tested on: ECHCG; assay: Pre-emergence action against ECHCG, 1280 g/ha; assay type: in vivo, Echinochloa crus-galli; details: visual scoring after about 3 weeks vs untreated controls, 100% = plants have died, 0% = like control plants
Outline: as §1

[4] = tested on: LOLRI; assay: Pre-emergence action against LOLRI, 1280 g/ha; assay type: in vivo, Lolium rigidum; details: visual scoring after about 3 weeks vs untreated controls, 100% = plants have died, 0% = like control plants
Outline: as §1

[5] = tested on: POAAN; assay: Pre-emergence action against POAAN, 1280 g/ha; assay type: in vivo, Poa annua; details: visual scoring after about 3 weeks vs untreated controls, 100% = plants have died, 0% = like control plants
Outline: as §1

[6] = tested on: SETVI; assay: Pre-emergence action against SETVI, 1280 g/ha; assay type: in vivo, Setaria viridis; details: visual scoring after about 3 weeks vs untreated controls, 100% = plants have died, 0% = like control plants
Outline: as §1

[7] = tested on: ABUTH; assay: Pre-emergence action against ABUTH, 1280 g/ha; assay type: in vivo, Abutilon theophrasti; details: scored visually after about 3 weeks vs untreated controls (100% = plants have died)
Outline: as §1

[8] = tested on: AMARE; assay: Pre-emergence action against AMARE, 1280 g/ha; assay type: in vivo, Amaranthus retroflexus; details: scored visually after about 3 weeks vs untreated controls (100% = plants have died)
Outline: as §1

[9] = tested on: KCHSC; assay: Pre-emergence action against KCHSC, 1280 g/ha; assay type: in vivo, Bassia scoparia; details: scored visually after about 3 weeks vs untreated controls (100% = plants have died)
Outline: as §1

[10] = tested on: MATIN; assay: Pre-emergence action against MATIN, 1280 g/ha; assay type: in vivo, Tripleurospermum inodorum (Matricaria inodora); details: scored visually after about 3 weeks vs untreated controls (100% = plants have died)
Outline: as §1

[11] = tested on: STEME; assay: Pre-emergence action against STEME, 1280 g/ha; assay type: in vivo, Stellaria media; details: scored visually after about 3 weeks vs untreated controls (100% = plants have died)
Outline: as §1

[12] = tested on: VERPE; assay: Pre-emergence action against VERPE, 1280 g/ha; assay type: in vivo, Veronica persica; details: scored visually after about 3 weeks vs untreated controls (100% = plants have died)
Outline: as §1

[13] = tested on: ALOMY; assay: Pre-emergence action at 320 g/ha against ALOMY; assay type: in vivo, Alopecurus myosuroides; details: scored visually after about 3 weeks vs untreated controls (100% = plants have died)
Outline: (§2)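 Application: aqueous WP or EC with 0.5% additive on soil covering seeds, 600 l/ha. Read-out: visual percent damage after ~3 weeks in greenhouse, untreated pots as reference.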

[14] = tested on: AVEFA; assay: Pre-emergence action at 320 g/ha against AVEFA; assay type: in vivo; details: visual scoring after about 3 weeks vs untreated controls
Outline: as §2

[15] = tested on: DIGSA; assay: Pre-emergence action at 320 g/ha against DIGSA; assay type: in vivo, Digitaria sanguinalis; details: visual scoring after about 3 weeks vs untreated controls
Outline: as §2

[16] = tested on: ECHGC; assay: Pre-emergence action at 320 g/ha against ECHGC; assay type: in vivo, Echinochloa crus-galli; details: visual scoring after about 3 weeks vs untreated controls
Outline: as §2

[17] = tested on: LOLRI; assay: Pre-emergence action at 320 g/ha against LOLRI; assay type: in vivo, Lolium rigidum; details: visual scoring after about 3 weeks vs untreated controls
Outline: as §2

[18] = tested on: SETVI; assay: Pre-emergence action at 320 g/ha against SETVI; assay type: in vivo, Setaria viridis; details: visual scoring after about 3 weeks vs untreated controls
Outline: as §2

[19] = tested on: AMARE; assay: Pre-emergence action at 320 g/ha against AMARE; assay type: in vivo, Amaranthus retroflexus; details: visual scoring after about 3 weeks vs untreated controls
Outline: as §2

[20] = tested on: MATIN; assay: Pre-emergence action at 320 g/ha against MATIN; assay type: in vivo, Tripleurospermum inodorum (Matricaria inodora); details: visual scoring after about 3 weeks vs untreated controls
Outline: as §2

[21] = tested on: PHBPU; assay: Pre-emergence action at 320 g/ha against PHBPU; assay type: in vivo; details: visual scoring after about 3 weeks vs untreated controls
Text: b) Seeds of monocotyledonous and dicotyledonous weed plants and crop plants are placed in plastic or organic planting pots and covered with soil. The compounds of the invention, formulated in the form of wettable powders (WP) or as emulsion concentrates (EC), are then applied onto the surface of the covering soil as aqueous suspension or emulsion with addition of 0.5% additive at a water application rate of 600 l/ha (converted). After the treatment, the pots are placed in a greenhouse and kept under good growth conditions for the trial plants. After about 3 weeks, the effect of the preparations is scored visually in comparison with untreated controls as percentages. For example, 100% activity=the plants have died, 0% activity=like control plants. Tables 13 to 26 below show the effects of selected compounds of the general formula (I) on various harmful plants and at an application rate corresponding to 320 g/ha, which were obtained by the experimental procedure mentioned above.

[22] = tested on: POLCO; assay: Pre-emergence action at 320 g/ha against POLCO; assay type: in vivo, Fallopia convolvulus (Polygonum convolvulus); details: visual scoring after about 3 weeks vs untreated controls
Outline: as §2

[23] = tested on: VERPE; assay: Pre-emergence action at 320 g/ha against VERPE; assay type: in vivo, Veronica persica; details: visual scoring after about 3 weeks vs untreated controls
Outline: as §2

[24] = tested on: VIOTR; assay: Pre-emergence action at 320 g/ha against VIOTR; assay type: in vivo, Viola tricolor; details: dosage 320 g/ha
Outline: as §2

[25] = tested on: ALOMY; assay: Post-emergence action against ALOMY, 1.28 kg/ha; assay type: in vivo, Alopecurus myosuroides; details: dosage 1280 g/ha, visual rating about 3 weeks after treatment vs untreated controls
Outline: (§3)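 Visual rating against untreated plants about 3 weeks after spraying gives % activity, where 0% means like controls and 100% means plants died. Plants were treated post-emergence at the one-leaf stage with compound formulated as wettable powder or emulsion concentrate, applied at 600 L water/ha plus 0.5% additive.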

[26] = tested on: DIGSA; assay: Post-emergence action against DIGSA, 1.28 kg/ha; assay type: in vivo, Digitaria sanguinalis; details: dosage 1280 g/ha, visual rating about 3 weeks after treatment vs untreated controls
Outline: as §3

[27] = tested on: ECHCG; assay: Post-emergence action against ECHCG, 1.28 kg/ha; assay type: in vivo, Echinochloa crus-galli; details: dosage 1280 g/ha, visual rating about 3 weeks after treatment vs untreated controls
Outline: as §3

[28] = tested on: LOLRI; assay: Post-emergence action against LOLRI, 1.28 kg/ha; assay type: in vivo, Lolium rigidum; details: dosage 1280 g/ha, visual rating about 3 weeks after treatment vs untreated controls
Outline: as §3

[29] = tested on: POAAN; assay: Post-emergence action against POAAN, 1.28 kg/ha; assay type: in vivo, Poa annua; details: dosage 1280 g/ha, visual rating about 3 weeks after treatment vs untreated controls
Outline: as §3

[30] = tested on: SETVI; assay: Post-emergence action against SETVI, 1.28 kg/ha; assay type: in vivo, Setaria viridis; details: dosage 1280 g/ha, visual rating about 3 weeks after treatment vs untreated controls
Outline: as §3

[31] = tested on: ABUTH; assay: Post-emergence action against ABUTH, 1.28 kg/ha; assay type: in vivo, Abutilon theophrasti; details: dosage 1280 g/ha, visual rating about 3 weeks after treatment vs untreated controls (100% = plants died)
Outline: as §3

[32] = tested on: AMARE; assay: Post-emergence action against AMARE, 1.28 kg/ha; assay type: in vivo, Amaranthus retroflexus; details: dosage 1280 g/ha, visual rating about 3 weeks after treatment vs untreated controls (100% = plants died)
Outline: as §3

[33] = tested on: MATIN; assay: Post-emergence action against MATIN, 1.28 kg/ha; assay type: in vivo, Tripleurospermum inodorum (Matricaria inodora); details: dosage 1280 g/ha, visual rating about 3 weeks after treatment vs untreated controls (100% = plants died)
Outline: as §3

[34] = tested on: STEME; assay: Post-emergence action against STEME, 1.28 kg/ha; assay type: in vivo, Stellaria media; details: dosage 1280 g/ha, visual rating about 3 weeks after treatment vs untreated controls (100% = plants died)
Outline: as §3

[35] = tested on: VERPE; assay: Post-emergence action against VERPE, 1.28 kg/ha; assay type: in vivo, Veronica persica; details: dosage 1280 g/ha, visual rating about 3 weeks after treatment vs untreated controls (100% = plants died)
Outline: as §3

[36] = tested on: KCHSC; assay: Post-emergence action against KCHSC, 1.28 kg/ha; assay type: in vivo, Bassia scoparia; details: dosage 1280 g/ha, visual rating about 3 weeks after treatment vs untreated controls (100% = plants died)
Outline: as §3

Row | Structure (SMILES) | Pre-emergence action against ALOMY [1] [%] | Pre-emergence action against DIGSA [2] [%] | Pre-emergence action against ECHCG [3] [%] | Pre-emergence action against LOLRI [4] [%] | Pre-emergence action against POAAN [5] [%] | Pre-emergence action against SETVI [6] [%] | Pre-emergence action against ABUTH [7] [%] | Pre-emergence action against AMARE [8] [%] | Pre-emergence action against KCHSC [9] [%] | Pre-emergence action against MATIN [10] [%] | Pre-emergence action against STEME [11] [%] | Pre-emergence action against VERPE [12] [%] | Pre-emergence action at 320 g/ha against ALOMY in % [13] [%] | Pre-emergence action against AVEFA in % [14] [%] | Pre-emergence action against DIGSA in % [15] [%] | Pre-emergence action against ECHGC in % [16] [%] | Pre-emergence action against LOLRI in % [17] [%] | Pre-emergence action against SETVI in % [18] [%] | Pre-emergence action against AMARE in % [19] [%] | Pre-emergence action against MATIN in % [20] [%] | other results
1 | N#CCCOC(=O)COc1nn(-c2ccccc2F)c(-c2ccc(F)nc2)c1Br [VII-110] | 100 | 100 | 100 | 100 | 100 | 100 | 90 | 100 | 90 | 100 | 100 | 100 | 100 | 80 | 100 | 100 | 100 | 100 | 100 | 100 | Pre-emergence action against PHBPU in % [21]: 90%; Pre-emergence action against POLCO in % [22]: 100%; Pre-emergence action against VERPE in % [23]: 100%; Pre-emergence action against VIOTR in % [24]: 100%; Post-emergence action against ALOMY [25]: 100%; Post-emergence action against DIGSA [26]: 100%; Post-emergence action against ECHCG [27]: 100%; Post-emergence action against LOLRI [28]: 100%; Post-emergence action against POAAN [29]: 100%; Post-emergence action against SETVI [30]: 90%; Post-emergence action against ABUTH [31]: 90%; Post-emergence action against AMARE [32]: 90%; Post-emergence action against MATIN [33]: 100%; Post-emergence action against STEME [34]: 100%; Post-emergence action against VERPE [35]: 100%
2 | CSCCOC(=O)COc1nn(-c2ccccc2F)c(-c2ccc(F)nc2)c1Br [VII-124] | 100 | 100 | 100 | 100 | 100 | 100 | 90 | 100 | 90 | 100 | 100 | 100 | 100 | 90 | 100 | 100 | 100 | 100 | 100 | 100 | Pre-emergence action against PHBPU in % [21]: 90%; Pre-emergence action against POLCO in % [22]: 100%; Pre-emergence action against VERPE in % [23]: 100%; Pre-emergence action against VIOTR in % [24]: 100%; Post-emergence action against ALOMY [25]: 100%; Post-emergence action against DIGSA [26]: 100%; Post-emergence action against ECHCG [27]: 100%; Post-emergence action against LOLRI [28]: 100%; Post-emergence action against POAAN [29]: 100%; Post-emergence action against SETVI [30]: 90%; Post-emergence action against ABUTH [31]: 90%; Post-emergence action against AMARE [32]: 90%; Post-emergence action against KCHSC [36]: 90%; Post-emergence action against MATIN [33]: 100%; Post-emergence action against STEME [34]: 100%; Post-emergence action against VERPE [35]: 100%
